# Reference: ChEMBL document CHEMBL2074460, “P-glycoprotein-mediated transport of digitoxin, alpha-methyldigoxin and beta-acetyldigoxin” (Naunyn Schmiedebergs Arch Pharmacol, 2001)
# Biological target: ATP-dependent translocase ABCB1 (Homo sapiens, UniProt P08183)
# Assay: TP_TRANSPORTER: transepithelial transport (basal to apical) in MDR1-expressing LLC-PK1 cells
# Format: functional, cell-based
# Settings: pig
# Sequence of ATP-dependent translocase ABCB1 (P08183 whole entry): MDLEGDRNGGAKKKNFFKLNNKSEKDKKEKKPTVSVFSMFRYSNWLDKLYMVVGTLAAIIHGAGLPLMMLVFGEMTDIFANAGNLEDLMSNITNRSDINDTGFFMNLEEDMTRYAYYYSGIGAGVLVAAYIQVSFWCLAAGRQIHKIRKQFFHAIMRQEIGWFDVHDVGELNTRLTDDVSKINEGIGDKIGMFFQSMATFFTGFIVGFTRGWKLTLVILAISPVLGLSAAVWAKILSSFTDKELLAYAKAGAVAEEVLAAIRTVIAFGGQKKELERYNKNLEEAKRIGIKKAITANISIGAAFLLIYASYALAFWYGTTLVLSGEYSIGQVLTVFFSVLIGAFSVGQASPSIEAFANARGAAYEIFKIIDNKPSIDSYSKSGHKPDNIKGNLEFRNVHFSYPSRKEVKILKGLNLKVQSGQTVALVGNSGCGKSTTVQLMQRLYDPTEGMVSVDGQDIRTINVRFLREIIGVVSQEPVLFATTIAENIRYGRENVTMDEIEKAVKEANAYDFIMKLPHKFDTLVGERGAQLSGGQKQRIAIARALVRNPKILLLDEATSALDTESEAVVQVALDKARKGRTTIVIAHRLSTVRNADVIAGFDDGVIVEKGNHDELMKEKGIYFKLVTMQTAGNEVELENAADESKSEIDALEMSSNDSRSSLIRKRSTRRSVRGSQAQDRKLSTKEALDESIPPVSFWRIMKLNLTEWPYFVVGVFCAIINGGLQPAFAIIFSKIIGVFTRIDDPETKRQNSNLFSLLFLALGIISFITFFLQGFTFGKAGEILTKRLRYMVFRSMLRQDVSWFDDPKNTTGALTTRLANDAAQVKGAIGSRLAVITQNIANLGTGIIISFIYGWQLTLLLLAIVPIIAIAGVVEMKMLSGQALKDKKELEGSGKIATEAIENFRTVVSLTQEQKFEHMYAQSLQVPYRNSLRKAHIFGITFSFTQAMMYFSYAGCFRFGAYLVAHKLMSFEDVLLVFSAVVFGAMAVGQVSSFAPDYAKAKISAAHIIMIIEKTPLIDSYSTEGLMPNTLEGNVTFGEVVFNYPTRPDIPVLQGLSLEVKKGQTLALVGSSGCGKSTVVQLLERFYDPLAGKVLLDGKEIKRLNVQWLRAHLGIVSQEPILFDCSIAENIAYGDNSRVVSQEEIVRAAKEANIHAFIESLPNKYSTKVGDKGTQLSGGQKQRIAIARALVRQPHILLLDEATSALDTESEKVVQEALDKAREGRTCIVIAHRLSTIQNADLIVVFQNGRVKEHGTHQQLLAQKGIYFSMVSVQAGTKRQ
row,Structure (SMILES),Activity
1,C[C@H]1O[C@@H](O[C@H]2[C@@H](O)C[C@H](O[C@H]3[C@@H](O)C[C@H](O[C@H]4CC[C@@]5(C)[C@H](CC[C@@H]6[C@@H]5CC[C@]5(C)[C@@H](C7=CC(=O)OC7)CC[C@]65O)C4)O[C@@H]3C)O[C@@H]2C)C[C@H](O)[C@@H]1O [DIGITOXIN],substrate [+]
2,O=C(O)CCC(=O)C(=O)O [ALPHA-KETOGLUTARIC ACID],substrate [+]
3,CC(=O)O[C@H]1C[C@H](O[C@H]2[C@@H](O)C[C@H](O[C@H]3[C@@H](O)C[C@H](O[C@H]4CC[C@@]5(C)[C@H](CC[C@@H]6[C@@H]5C[C@@H](O)[C@]5(C)[C@@H](C7=CC(=O)OC7)CC[C@]65O)C4)O[C@@H]3C)O[C@@H]2C)O[C@H](C)[C@H]1O [ACETYLDIGOXIN],substrate [+]
